The structures appear in SMILES notation.

T1 sequence (Q9UM07 2-663): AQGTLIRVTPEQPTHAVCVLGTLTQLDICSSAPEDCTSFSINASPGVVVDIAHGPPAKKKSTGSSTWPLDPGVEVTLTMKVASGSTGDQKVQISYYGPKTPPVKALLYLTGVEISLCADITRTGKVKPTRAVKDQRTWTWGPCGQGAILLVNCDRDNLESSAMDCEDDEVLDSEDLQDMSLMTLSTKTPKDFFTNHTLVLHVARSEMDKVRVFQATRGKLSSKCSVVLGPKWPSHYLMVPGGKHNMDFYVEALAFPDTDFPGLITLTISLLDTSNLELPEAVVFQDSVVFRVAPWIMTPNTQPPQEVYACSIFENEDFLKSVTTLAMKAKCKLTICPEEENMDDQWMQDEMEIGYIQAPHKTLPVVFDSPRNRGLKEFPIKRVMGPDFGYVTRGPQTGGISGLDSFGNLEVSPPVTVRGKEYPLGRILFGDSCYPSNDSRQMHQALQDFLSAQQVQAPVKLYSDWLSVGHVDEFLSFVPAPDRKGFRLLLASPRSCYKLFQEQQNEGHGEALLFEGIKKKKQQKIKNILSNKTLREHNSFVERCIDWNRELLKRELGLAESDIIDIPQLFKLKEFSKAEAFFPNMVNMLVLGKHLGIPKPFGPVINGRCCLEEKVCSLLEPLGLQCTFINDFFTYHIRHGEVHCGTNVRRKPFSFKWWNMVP

The test concerns the target T1, human PAD4 (Homo sapiens, UniProt Q9UM07).
T1 construct: human PAD4 (NM_012387), A2P663, was PCR amplified; His-SUMO (N, cleaved yes); made in house; host or cells: E. coli BL21(DE3)
The test is described as follows: In vitro PAD4 BAEE biochemical assay. To be noted: human PAD4, BAEE substrate; 5 nM PAD4, 2 mM calcium chloride, 3 mM BAEE; geometric mean of multiple experiments. As for the experimental part:
The PCR product was ligated into linearized pET-SUMO vector (Invitrogen, Carlsbad, CA), which is part of the Champion™ pET SUMO Protein Expression System. After sequence verification for the correct orientation, the pET-SUMO-hPAD4 expression plasmid was transformed into BL21(DE3) cells.
E. Coli BL21(DE3) cells were inoculated in LB medium with kanamycin at 37° C. until A600 nm reached about 0.5. Protein expression was induced by addition of 0.5 mM IPTG (final) and continued overnight at 16° C. at 220 rpm.
Cells were harvested by centrifugation at 5000 rpm for 10 minutes at 4° C. The pellet was resuspended in 300 ml lysis buffer (20 mM Tris-HCl, pH 8.0, 1 mM EDTA, 500 mM NaCl, 1 mM (tris(2-carboxyethyl)phosphine) (TCEP), 10% glycerol, and 1% Triton X100 and EDTA free protease inhibitor) and lysed by 3× passage through a microfluidizer (Microfluidics, Newton, MA) at 18,000 psi. The cell lysate was clarified by centrifugation at 30,000 rpm for 60 minutes at 4° C. […] Bound protein was eluted with a 0-100% linear gradient of 100 mL Ni-B buffer (Ni A buffer+0.5 M Imidazole).
The protein was then reloaded onto a Ni—HP column for a reverse purification step and recovered in flow through fraction. The protein with His-Sumo tag removed was then polished using a 16/60 Superdex-200 gel filtration column with gel filtration buffer (20 mM Tris pH 8.0, NaCl 400 mM and 1 mM TCEP). The fractions containing the protein were pulled and frozen at −80° C.
The enzymatic activity of human PAD4 was monitored in a biochemical assay in the presence or absence of compounds using the small peptidyl arginine mimic BAEE (Na-Benzoyl-L-arginine ethyl ester hydrochloride) as substrate. PAD4 activity led to deamination of BAEE and release of ammonia. Levels of ammonia were monitored by using an amine coupling reaction and were indicative of PAD4 enzymatic activity.
One hundred nanoliters of test compounds dissolved in DMSO at various concentrations were dispensed into a 384-well black OptiPlate using a Labcyte Echo instrument. Ten microliters of a solution of recombinant PAD4 and calcium chloride diluted in PAD4 assay buffer (50 mM MOPS [3-(N-morpholino) propanesulfonic acid], pH 7.6; 50 mM sodium chloride; 0.05% Tween-20; 2 mM dithiothreitol) was added to the compound-containing plate and was incubated for 30 minutes at 25° C. Ten microliters of a solution of BAEE (Sigma-Aldrich #B4500) diluted in PAD4 assay buffer was then added to start the reaction. Final concentrations were 5 nM PAD4, 2 mM calcium chloride, and 3 mM BAEE. The reaction mixture was incubated at 25° C. for 2 hours and was stopped with the addition of 10 microliters of a solution of 75 mM EDTA (Ethylenediaminetetraacetic acid) in PAD4 assay buffer. Thirty microliters of detection solution (5 mM o-phthalaldehyde, 50 mM MOPS [3-(N-morpholino) propanesulfonic acid], pH 7.6; 50 mM sodium chloride; 0.05% Tween-20; 5 mM dithiothreitol) was then added and the reaction was incubated for 1 hour at 25° C.
Take `COc1cc(C(=O)N2[C@H]3CC[C@@H]2[C@H](N)C3)cc2nc(-c3cc4ccc(N5CCOCCS5(=O)=O)nc4n3CC3CC3)c(C)n12` [Example 451, [(1~{R},2~{R},4~{S})-2-amino-7-azabicyclo [2.2.1]heptan-7-yl]-[2-[1-(cyclopropylmethyl)-6-(4,4-dioxo-1,4,5-oxathiazepan-5-yl)pyrrolo [2,3-b]pyridin-2-yl]-5-methoxy-3-methylimidazo[1,2-a]pyridin-7-yl]methanone]: the half-inhibitory concentration (IC50) (as a rule, the concentration that gives 50% inhibition) was 21.8 nM. On to `COc1cc(C(=O)N2[C@H]3CC[C@@H]2[C@H](N)C3)cc2nc(-c3cc4ccc([C@@H](C)NC(=O)C5CC56CC6)nc4n3CC3CC3)c(C)n12` (stereo partly shown) [Example 69, ~{N}-[(1~{R})-1-[2-[7-[(1~{R},2~{R},4~{S})-2-amino-7-azabicyclo [2.2.1]heptane-7-carbonyl]-5-methoxy-3-methylimidazo [1,2-a]pyridin-2-yl]-1-(cyclopropylmethyl)pyrrolo[2,3-b]pyridin-6-yl]ethyl]spiro[2.2] pentane-2-carboxamide], for which the IC50 was found to be 41 nM. Then `COc1cc(C(=O)N2C[C@@H]3CCC[C@H]2[C@H]3N)cc2nc(-c3cc4ccc(N(C(F)F)S(C)(=O)=O)nc4n3CC3CC3)c(C)n12` [Example 329, N-[2-[7-[(1S,5S,8S)-8-amino-6-azabicyclo[3.2.1]octane-6-carbonyl]-5-methoxy-3-methyl-imidazo[1,2-a]pyridin-2-yl]-1-(cyclopropylmethyl)pyrrolo [2,3-b]pyridin-6-yl]-N-(difluoromethyl) methanesulfonamide], with 5660 nM. Then `CNC(=O)COc1ccc2cc(-c3nc4cc(C(=O)N5CCC[C@@H](N)C5)cc(OC)n4c3C)n(CC3CC3)c2n1` [Example 622, 2-[2-[7-[(3~{R})-3-aminopiperidine-1-carbonyl]-5-methoxy-3-methylimidazo[1,2-a]pyridin-2-yl]-1-(cyclopropylmethyl)pyrrolo [2,3-b]pyridin-6-yl] oxy-~{N}-methylacetamide], with 894 nM; and `COc1cc(C(=O)N2[C@H]3CC[C@@H]2[C@H](N)C3)cc2nc(-c3cc4ccc([C@@H](C)NC(=O)N5CC(OC(F)(F)F)C5)nc4n3CC3CC3)c(C)n12` [Example 202, ~{N}-[(1~{R})-1-[2-[7-[(1~{R},2~{R},4~{S})-2-amino-7-azabicyclo[2.2.1]heptane-7-carbonyl]-5-methoxy-3-methylimidazo [1,2-a]pyridin-2-yl]-1-(cyclopropylmethyl)pyrrolo [2,3-b]pyridin-6-yl]ethyl]-3-(trifluoromethoxy)azetidine-1-carboxamide], with 52 nM; and `COc1cc(C(=O)N2C[C@H](N)C[C@@H](F)C2)cc2nc(-c3cc4ccc([C@@H](C)NC(=O)C56CC(F)(C5)C6)nc4n3CC3CC3)c(C)n12` [Example 36, ~{N}-[(1~{R})-1-[2-[7-[(3~{R}, 5~{R})-3-amino-5-fluoropiperidine-1-carbonyl]-5-methoxy-3-methylimidazo[1,2-a]pyridin-2-yl]-1-(cyclopropylmethyl)pyrrolo[2,3-b]pyridin-6-yl]ethyl]-3-fluorobicyclo[1.1.1] pentane-1-carboxamide], with 369 nM. With `COc1cc(C(=O)N2[C@H]3CC[C@@H]2[C@H](N)C3)cc2nc(-c3cc4ccc([C@@H](C)NC(=O)c5cnn(C6CC6)c5)nc4n3CC3CC3)c(C)n12` [Example 106, ~{N}-[(1~{R})-1-[2-[7-[(1~{R},2~{R},4~{S})-2-amino-7-azabicyclo [2.2.1]heptane-7-carbonyl]-5-methoxy-3-methylimidazo [1,2-a]pyridin-2-yl]-1-(cyclopropylmethyl)pyrrolo [2,3-b]pyridin-6-yl]ethyl]-1-cyclopropylpyrazole-4-carboxamide], the IC50 is 40.6 nM.

Values taken from patent US12240862B2, “Inhibitors of peptidylarginine deiminases” (Gilead Sciences, Inc., priority 2020, dated 2025).
